Test results published in patent US8906349B2, “Oral care composition” (priority 2009, dated 2014).
Values after ≈ are worked out from the molar mass of the structure shown. Read-outs that look alike come from different tables or passages of the source.

How the values were obtained:
Assay type in all cases: cell-based
[1] = system: five-species biofilm: A. viscosus, Lactobacillus casei, Streptococcus oralis, Fusobacterium nucleatum and Veillonella parvula; assay: Multispecies biofilm formation on saliva coated hydroxyapatite disks, 48 h, OD610 (Example 6); details: 20 ppm of Triclosan alone, FIG. 5
Procedure: The ability of compositions comprising Triclosan and bisabolol either alone or in combination to inhibit biofilm formation were tested in a multispecies model where the biofilms comprised five representative oral bacterial species: A. viscosus, Lactobacillus casei, Streptococcus oralis, Fusobacterium nucleatum and Veillonella parvula. Saliva coated hydroxyapatite (HAP) disks were inoculated with this five-species mix of bacteria in the presence Triclosan alone, bisabolol alone or with a 2:1 concentration of bisabolol:Triclosan. Disks were incubated for 48 h to allow biofilm formation to occur. Biofilm containing disks are were incubated in 1 ml of 0.25% trypsin solution for 45 min at 37° C. to release the biofilm and biomass was read as the OD610 of the trypsin solution.
In order to determine any antibiofilm effect beyond that of Triclosan, it was necessary to reduce the concentration of Triclosan below the inhibitory concentration. […]

A. viscosus biofilm [2] = assay: Bioenhancement assay: BEC50 of antimicrobial agents with or without bisabolol, crystal violet, 24 h (Examples 4 and 5)
A. viscosus = assay: Minimum inhibitory concentration, serial dilution in 96-well plate, 24 h; details: Actinomyces viscosus, read-out: MIC (A. viscosus)
Procedure: The minimum inhibitory concentration for actives was determined by incubating Actinomyces viscosus bacteria with serial dilutions of the active for 24 hours and determining the lowest concentration at which growth of this species was inhibited. Briefly, 100 μl final volume actives were serially diluted in 0.5× tryptic soy broth (TSB) across duplicate wells of a 96-well flat bottom microtiter plate. An overnight culture of bacteria was diluted to an OD610 ˜0.2 and 100 μl of this was added to each well. Plates were incubated overnight at 37° C. OD610 was read for each well and the MIC was determined as the concentration of active in the last well where bacterial growth was inhibited.

A. viscosus biofilm [3] = assay: Biofilm Eradication Concentration (BEC50), crystal violet biomass, compositions serially diluted (Example 3); details: FIG. 2; for BEC(50) alone: active tested alone, lowest concentration with >50% reduction in biomass vs media control; for BEC50 in combination: bisabolol (0.7%) and Triclosan (0.05%) composition serially diluted, concentration of the named active in the combination
Procedure: A composition comprising bisabolol, a composition comprising the antibacterial agent Triclosan and a composition comprising both bisabolol and Triclosan were tested for antibiofilm activity.
A composition comprising bisabolol (0.7%), a composition comprising Triclosan (0.05%) and a composition comprising bisabolol (0.7%) and Triclosan (0.05%) were each serially diluted in a 96-well plate. A. viscosus cultures were added to each well and plates were incubated at 37° C. to allow biofilm formation to occur. Following biofilm formation, supernatants were removed and wells were stained with 0.6% crystal violet for 15 min. Biofilm biomass was quantified by reading the absorbance of each well at 590 nm and the percentage reduction in biomass relative to a control of media alone was calculated.
BEC50 is defined as the minimum concentration at which a greater than 50% reduction of biofilm formation is observed.

A. viscosus biofilm [4] = assay: Inhibition of single-species biofilm formation by serial dilutions of bisabolol (Example 2); details: bisabolol alone, 24 hours, FIG. 1
Procedure: The effect of different concentrations of bisabolol on the inhibition of A. viscosus biofilm formation was tested. A. viscosus bacteria were grown for 24 hours in the presence of serial dilutions of bisabolol or an equivalent concentration of EtOH. Wells were stained to visualize biofilm formation. The results are shown in FIG. 1 where the x-axis represents the concentration of bisabolol (or an equivalent solution of EtOH in media) and the y-axis represents the percent reduction in biofilm relative to control wells grown in media alone.

[5] = Table 2, absence of bisabolol, FIG. 4a
[6] = Table 2, presence of 50 ppm bisabolol, FIG. 4a
[7] = first Table 3, said to be raw data of FIG. 4b, absence of bisabolol
[8] = first Table 3, said to be raw data of FIG. 4b, presence of 50 ppm bisabolol

MIC (A. viscosus; lowest concentration inhibiting growth, overnight at 37° C., 0.5× TSB) | Molecule | reduction in biofilm formation [1] | BEC50 of Triclosan alone (A. viscosus biofilm [2]; Example 4, no bisabolol, FIG. 3) | BEC50 of Triclosan in the composition comprising bisabolol (A. viscosus biofilm [2]; Example 4, with 5 ppm bisabolol, FIG. 3) | BEC(50) alone (A. viscosus biofilm [2]; [5]) | BEC(50) w/bisabolol (A. viscosus biofilm [2]; [6]) | BEC(50) alone (A. viscosus biofilm [2]; [7]) | BEC(50) w/bisabolol (A. viscosus biofilm [2]; [8]) | MIC (A. viscosus) | BEC(50) alone (A. viscosus biofilm [3]) | BEC50 in combination (A. viscosus biofilm [3]) | lowest concentration inhibiting formation of single-species biofilms (A. viscosus biofilm [4])
– | Oc1cc(Cl)ccc1Oc1ccc(Cl)cc1Cl [Triclosan] | > 60% | 4.13 ppm | 1.78 ppm | 1.465 | 0.4883 | 0.2819 | 0 | 3.5 µg/mL (≈ 12.1 µM) | approximately 3.9 ppm | 1.95 ppm | –
– | [Cl][Sn][Cl] [stannous chloride] | – | – | – | 234.375 | 161.1 | 45.11 | 59.87 | – | – | – | –
– | catechin | – | – | – | 812.5 | 618.75 | 187.5 | 233.5 | – | – | – | –
– | C=CCc1ccc(O)c(-c2cc(CC=C)ccc2O)c1 [magnolol] | – | – | – | 3.906 | 0.8789 | 1.07 | 0.2847 | – | – | – | –
125 µg/mL (≈ 562 µM) | CC(C)=CCC[C@](C)(O)C1CC=C(C)CC1 (some centres unmarked) [Bisabolol] | – | – | – | – | – | – | – | – | 110 ppm | 27.3 ppm | 110 ppm
– | [F][Sn][F] [stannous flouride, stannous fluoride] | – | – | – | 312.5 | 86.06 | 0 | 75.56 | – | – | – | –
– | O=C([O-])CC(O)(CC(=O)[O-])C(=O)[O-].O=C([O-])CC(O)(CC(=O)[O-])C(=O)[O-].[Zn+2].[Zn+2].[Zn+2] [zinc citrate] | – | – | – | 208.3 | 19.53 | 52.08 | 9.766 | – | – | – | –
– | CCCCc1ccc(O)c(-c2cc(CCCC)ccc2O)c1 [butyl magnolol] | – | – | – | 0.5859 | 0.5859 | 0.09766 | 0.09766 | – | – | – | –
– | CCCc1ccc(O)c(-c2ccc(O)c(CCC)c2)c1 [propyl honokiol] | – | – | – | 2.344 | 1.367 | 0.3906 | 0.2392 | – | – | – | –
– | CCCCCCCCCCCCCCCC[n+]1ccccc1 [CPC, cetyl pyridinium chloride] | – | – | – | 0.6836 | 0.4883 | 0.1196 | 1.7999E−07 | – | – | – | –
– | C=CCc1ccc(O)c(-c2ccc(O)c(CC=C)c2)c1 [honokiol] | – | – | – | 13.38 | 5.176 | 5.41 | 2.69 | – | – | – | –
